What all share (type): biochemical
Experiment [1] concerns the target T1, recombinant human VAP-1 (Homo sapiens, UniProt Q16853).
T1 construct: purchased R&D systems
T1 sequence (Q16853 1-763): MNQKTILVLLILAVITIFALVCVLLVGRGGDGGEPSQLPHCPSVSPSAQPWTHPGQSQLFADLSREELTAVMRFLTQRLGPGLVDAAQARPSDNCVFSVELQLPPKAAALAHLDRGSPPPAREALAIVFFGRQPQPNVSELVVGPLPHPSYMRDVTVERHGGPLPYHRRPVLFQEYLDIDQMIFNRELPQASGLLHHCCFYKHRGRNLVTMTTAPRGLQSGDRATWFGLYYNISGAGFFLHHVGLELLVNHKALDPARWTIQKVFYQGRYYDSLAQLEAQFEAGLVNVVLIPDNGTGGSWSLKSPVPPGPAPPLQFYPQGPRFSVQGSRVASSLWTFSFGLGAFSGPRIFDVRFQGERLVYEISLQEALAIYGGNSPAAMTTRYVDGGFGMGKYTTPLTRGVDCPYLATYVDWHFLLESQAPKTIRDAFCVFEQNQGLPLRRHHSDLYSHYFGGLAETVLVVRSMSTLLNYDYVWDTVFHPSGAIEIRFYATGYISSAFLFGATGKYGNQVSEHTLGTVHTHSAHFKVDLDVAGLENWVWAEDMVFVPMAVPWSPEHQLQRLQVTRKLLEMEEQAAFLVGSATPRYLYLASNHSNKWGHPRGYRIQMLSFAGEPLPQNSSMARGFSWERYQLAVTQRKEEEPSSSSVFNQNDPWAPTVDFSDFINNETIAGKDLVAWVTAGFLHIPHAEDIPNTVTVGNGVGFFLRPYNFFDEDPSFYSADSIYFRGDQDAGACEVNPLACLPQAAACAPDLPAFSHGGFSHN
Kind of experiment: Activity evaluation on recombinant human VAP-1 (Amplex Red/HRP-coupled hydrogen peroxide assay, benzylamine substrate). To be noted: read-out: Inhibitory Activity (IC50, nM) human VAP-1. As to the method: (§1) The compounds according to the present technology were evaluated in terms of activity on recombinant human VAP-1 (R&D systems) by measuring the level of hydrogen peroxide in horseradish peroxidase (HRP)-coupled reaction using Amplex Red Hydrogen Peroxide Assay Kit (Molecular Probes, Invitrogen, USA). The experiment was carried out at room temperature using benzylamine as a substrate. In the HRP-coupled reaction, hydrogen peroxide oxidation of 10-acetyl-3,7-dihydroxyphenoxazine (Amplex Red reagent) produces resorufin, which is a highly fluorescent compound. Briefly, the test compound was dissolved in dimethyl sulfoxide (DMSO) at a concentration of 20 mM. The dose-response assessment was made by 1:3 serial dilution in DMSO, thereby creating a 8 point curve. The concentration of the upper part was controlled according to the efficacy of the compounds, followed by the dilution with a reaction buffer solution to obtain a final DMSO concentration of less than 1%. To each well of a 96 black well plate, human VAP-1 purified in 50 mM sodium phosphate buffer solution (pH7.4) was added. The test compounds dissolved in DMSO were incubated with the human VAP-1 enzymes at 37° C. for 30 minutes. After 30-minute incubation, each well was added with a reaction mixture containing 200 uM Amplex Red reagent prepared from 50 mM sodium phosphate buffer solution (pH 7.4), 1 mM benzylamine, and 1 U/mL HRP. Fluorescence intensity was measured at several time points during 1-2 hours using a microplate reader (Flexstation3, Molecular Devices) under the wavelength condition exciting at 544 nm and reading the emission at 590 nm. The inhibitory effect of the compounds was measured as a decrease (%) in the signal rate as compared to the control group without any inhibitor (only diluted DMSO). Data was fixed to a logistic model with four variables and IC50 value was calculated using GraphPad Prism program.

The target of experiment [2] is T2, recombinant human MAO-A (monoamine oxidase-A) (Homo sapiens, UniProt P21397).
T2 construct: purchased Sigma-Aldrich
T2 sequence (P21397 1-527): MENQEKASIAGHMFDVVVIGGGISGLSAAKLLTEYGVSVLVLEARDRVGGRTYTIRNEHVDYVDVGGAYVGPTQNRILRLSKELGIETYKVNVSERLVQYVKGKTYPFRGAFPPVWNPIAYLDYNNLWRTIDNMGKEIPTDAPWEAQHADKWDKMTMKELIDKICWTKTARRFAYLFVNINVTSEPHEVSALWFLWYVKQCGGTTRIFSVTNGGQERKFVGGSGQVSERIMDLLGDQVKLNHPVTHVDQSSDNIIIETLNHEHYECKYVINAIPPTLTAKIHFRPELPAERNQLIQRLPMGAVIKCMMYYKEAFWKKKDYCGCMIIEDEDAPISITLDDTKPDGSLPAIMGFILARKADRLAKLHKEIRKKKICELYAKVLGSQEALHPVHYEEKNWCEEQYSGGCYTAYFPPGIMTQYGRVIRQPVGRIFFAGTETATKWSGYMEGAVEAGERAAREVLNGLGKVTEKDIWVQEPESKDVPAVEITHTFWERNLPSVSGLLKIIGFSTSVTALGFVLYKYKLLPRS
Kind of experiment: Activity evaluation on recombinant human MAO-A (Amplex Red/HRP-coupled assay, 0.5 mM tyramine substrate). To be noted: read-out: Inhibitory Activity (IC50, nM) MAO-A. As to the method:
as §1
(§2) In addition, the compounds according to the present technology were evaluated in terms of activity on a recombinant human MAO-A (monoamine oxidase-A, Sigma-Aldrich) and a recombinant human MAO-B (monoamine oxidase-B, Sigma-Aldrich) by using as substrates, 0.5 mM tyramine and 1 mM benzylamine, respectively, with a method similar to the activity evaluation method for recombinant human VAP-1. The compounds according to the present technology were also evaluated in terms of activity on a recombinant human DAO (diamine oxidase, R&D systems) by using as a substrate 1 mM putrescine with a method similar to the activity evaluation method for recombinant human VAP-1.

Experiment [3] addresses T3, recombinant human MAO-B (monoamine oxidase-B) (Homo sapiens, UniProt P27338).
T3 construct: purchased Sigma-Aldrich
T3 sequence (P27338 1-520): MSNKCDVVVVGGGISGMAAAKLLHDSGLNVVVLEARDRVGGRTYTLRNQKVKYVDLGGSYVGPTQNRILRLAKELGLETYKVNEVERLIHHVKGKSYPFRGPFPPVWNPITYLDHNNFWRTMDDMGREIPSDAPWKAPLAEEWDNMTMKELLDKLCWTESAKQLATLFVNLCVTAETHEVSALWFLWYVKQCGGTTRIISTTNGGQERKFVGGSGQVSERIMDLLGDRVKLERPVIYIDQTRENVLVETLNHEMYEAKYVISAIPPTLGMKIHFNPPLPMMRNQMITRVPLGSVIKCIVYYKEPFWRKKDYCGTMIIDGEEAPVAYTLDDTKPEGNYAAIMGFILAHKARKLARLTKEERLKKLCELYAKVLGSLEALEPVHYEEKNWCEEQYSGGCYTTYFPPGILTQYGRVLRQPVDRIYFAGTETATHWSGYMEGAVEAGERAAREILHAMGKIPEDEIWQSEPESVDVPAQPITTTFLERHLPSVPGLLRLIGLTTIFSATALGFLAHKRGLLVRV
Briefly: Activity evaluation on recombinant human MAO-B (Amplex Red/HRP-coupled assay, 1 mM benzylamine substrate). To be noted: read-out: Inhibitory Activity (IC50, nM) MAO-B. As to the method: as §1, §2

Experiment [4] addresses T4, recombinant human DAO (diamine oxidase) (Homo sapiens, UniProt P19801).
T4 construct: purchased R&D systems
T4 sequence (P19801 20-751): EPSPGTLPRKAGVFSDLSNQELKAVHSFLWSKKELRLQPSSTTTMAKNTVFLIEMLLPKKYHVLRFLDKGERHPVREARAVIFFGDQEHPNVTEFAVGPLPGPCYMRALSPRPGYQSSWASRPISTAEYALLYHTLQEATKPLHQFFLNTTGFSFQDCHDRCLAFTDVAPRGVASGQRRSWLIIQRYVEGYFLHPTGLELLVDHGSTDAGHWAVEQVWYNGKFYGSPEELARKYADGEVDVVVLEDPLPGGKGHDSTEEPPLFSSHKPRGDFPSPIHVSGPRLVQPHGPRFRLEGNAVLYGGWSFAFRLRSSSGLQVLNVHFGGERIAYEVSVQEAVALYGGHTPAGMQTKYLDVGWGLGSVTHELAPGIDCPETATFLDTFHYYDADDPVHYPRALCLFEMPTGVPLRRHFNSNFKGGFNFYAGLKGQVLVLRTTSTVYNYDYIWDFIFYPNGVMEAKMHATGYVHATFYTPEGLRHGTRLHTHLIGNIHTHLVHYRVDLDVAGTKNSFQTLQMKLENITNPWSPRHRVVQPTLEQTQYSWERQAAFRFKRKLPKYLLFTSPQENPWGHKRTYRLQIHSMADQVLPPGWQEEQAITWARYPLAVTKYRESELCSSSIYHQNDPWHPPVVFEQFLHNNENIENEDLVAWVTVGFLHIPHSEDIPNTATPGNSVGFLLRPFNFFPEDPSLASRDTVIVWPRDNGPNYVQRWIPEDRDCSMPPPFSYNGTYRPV
Briefly: Activity evaluation on recombinant human DAO (Amplex Red/HRP-coupled assay, 1 mM putrescine substrate). To be noted: read-out: Inhibitory Activity (IC50, nM) DAO. As to the method:
as §1, §2

The mark [5] stands for this setting: recombinant human VAP-1, benzylamine substrate.
The mark [6] stands for this setting: recombinant human VAP-1, 30 min preincubation at 37° C., 1 mM benzylamine.

Counter-ions that a name gives are not always drawn. Like-named read-outs stand apart in the source and are kept apart here.

By IC50 is commonly meant the concentration that inhibits the measured activity by half.

For the compound `CCn1cc(-c2cc(F)c(Cn3cnn(CC(CN)=C(F)F)c3=O)s2)cn1` [Example 302, 2-[2-(aminomethyl)-3,3-difluoro-allyl]-4-[[5-(1-ethylpyrazol-4-yl)-3-fluoro-2-thienyl]methyl]-1,2,4-triazol-3-one Trifluoroacetate], the IC50 is 1.1 nM in experiment [1] (setting [5]), above 100000 nM in experiment [2] (0.5 mM tyramine substrate), above 100000 nM in experiment [3] (1 mM benzylamine substrate) and 19500 nM in experiment [4] (1 mM putrescine substrate).
Take `NCC(Cn1ncn(Cc2ccc(Br)s2)c1=O)=C(F)F` [Example 97, 2-[2-(aminomethyl)-3,3-difluoro-allyl]-4-[(5-bromo-2-thienyl)methyl]-1,2,4-triazol-3-one Trifluoroacetate]: the IC50 in experiment [1] (setting [6]) is 1.3 nM; in experiment [2] (0.5 mM tyramine), above 100000 nM; in experiment [3] (1 mM benzylamine), 20000 nM; in experiment [4] (1 mM putrescine), above 10000 nM.
The matching figures for `Cc1cc(-c2ccc(N(C)C)nc2)cnc1-n1cnn(CC(CN)=C(F)F)c1=O` [Example 71, 2-[2-(aminomethyl)-3,3-difluoro-allyl]-4-[5-[6-(dimethylamino)-3-pyridyl]-3-methyl-2-pyridyl]-1,2,4-triazol-3-one Trifluoroacetate]: 0.8 nM, above 100000 nM, above 100000 nM and above 100000 nM.
The matching figures for `CCn1cc(-c2ccnc(-n3cnn(CC(CN)=C(F)F)c3=O)c2)cn1` [Example 60, 2-[2-(aminomethyl)-3,3-difluoro-allyl]-4-[4-(1-ethylpyrazol-4-yl)-2-pyridyl]-1,2,4-triazol-3-one Trifluoroacetate]: 1.3 nM, above 100000 nM, above 100000 nM and 810 nM.
With `Cc1c(-c2ccc3c(c2)CCC(=O)N3C)cccc1-n1cnn(CC(CN)=C(F)F)c1=O` [Example 259, 6-[3-[1-[2-(aminomethyl)-3,3-difluoro-allyl]-5-oxo-1,2,4-triazol-4-yl]-2-methyl-phenyl]-1-methyl-3,4-dihydroquinolin-2-one Trifluoroacetate], the IC50 in experiment [1] (setting [5]) was 1.3 nM; in experiment [2] (0.5 mM tyramine substrate) it was above 100000 nM; in experiment [3] (1 mM benzylamine substrate), above 100000 nM; in experiment [4] (1 mM putrescine substrate) it was above 100000 nM.
Turning to `Cc1cc(-c2ccc(-n3cnn(CC(CN)=C(F)F)c3=O)cn2)cc2c1NC(=O)CC2` [Example 43, 6-[5-[1-[2-(aminomethyl)-3,3-difluoro-allyl]-5-oxo-1,2,4-triazol-4-yl]-2-pyridyl]-8-methyl-3,4-dihydro-1H-quinolin-2-one Trifluoroacetate], the IC50 in experiment [1] (setting [6]) was 0.2 nM; in experiment [2] (0.5 mM tyramine), above 100000 nM; in experiment [3] (1 mM benzylamine) it was 100 nM; in experiment [4] (1 mM putrescine), 22 nM.
The matching figures for `CN1CC=C(c2ccc(Cn3cnn(CC(CN)=C(F)F)c3=O)s2)CC1` [Example 124, 2-[2-(aminomethyl)-3,3-difluoro-allyl]-4-[[5-(1-methyl-3,6-dihydro-2H-pyridin-4-yl)-2-thienyl]methyl]-1,2,4-triazol-3-one Trifluoroacetate]: 11 nM, above 100000 nM, above 100000 nM and above 100000 nM.
`NCC(Cn1ncn(-c2cccc(-c3ccc(N4CCNCC4)nc3)n2)c1=O)=C(F)F` [Example 213, 2-[2-(aminomethyl)-3,3-difluoro-allyl]-4-[6-(6-piperazin-1-yl-3-pyridyl)-2-pyridyl]-1,2,4-triazol-3-one Ditrifluoroacetate]: the IC50 in experiment [1] (setting [5]) was 2.5 nM; in experiment [2] (0.5 mM tyramine substrate), above 100000 nM; in experiment [3] (1 mM benzylamine substrate) it was above 100000 nM; in experiment [4] (1 mM putrescine substrate) it was 1300 nM.
Turning to `CN(C)c1ccc(-c2cnc(-n3cnn(CC(CN)=C(F)F)c3=O)cn2)cn1` [Example 92, 2-[2-(aminomethyl)-3,3-difluoro-allyl]-4-[5-[6-(dimethylamino)-3-pyridyl]pyrazin-2-yl]-1,2,4-triazol-3-one Trifluoroacetate], the 50% inhibitory concentration (IC50) was 0.2 nM in experiment [1] (setting [6]), above 100000 nM in experiment [2] (0.5 mM tyramine), 6200 nM in experiment [3] (1 mM benzylamine) and 8 nM in experiment [4] (1 mM putrescine).

The values above are taken from patent publication US11168073B2, “3,3-difluoroallylamines or salts thereof and pharmaceutical compositions comprising the same” (YUHAN CORPORATION, priority 2018, dated 2021).
